Reference: PMC8467532, “DYRK1A Kinase Inhibitors Promote β-Cell Survival and Insulin Homeostasis” (Cells, 2021)

What was measured:
[1] = test system: INS-1E and MIN6 cells; experiment: MTT cytotoxicity and cell survival assay, β-cell lines
[2] = test system: isolated mouse islets; experiment: Insulin secretion assay in isolated mouse islets (ELISA, immunostaining); format: cell-based; set-up: key to insulin secretion (ELISA): ↑: moderate; ↑↑: most potent
Procedure: The Insulin ELISA (Ultra Sensitive) was used to quantify insulin levels in control and treated organoids and isolated islets from the mouse pancreas (Crystal Chem, Downers Grove, IL, USA). Islets were homogenized in lysis buffer. Obtained buffer lysates and medium samples (after GSIS) were analyzed for total protein level and subsequently processed following the manufacturer’s protocol.
Mice (male, initially 12 weeks old) were sacrificed by cervical vertebral dislocation. Before starting the incision, their bodies were sprayed with 70% EtOH. A hemostatic clamp was placed on both sides of the small intestine, leaving a small pocket to absorb the collagenase solution into the intestine. Next, 3 mL of cold collagenase solution was introduced into the pancreas through the bile duct. The pancreas was removed from the body and placed in a falcon tube containing 2 mL of collagenase solution. The tube was placed in a water bath at 37 °C. It was incubated for 13 min. At the end of this time, the falcon was shaken vigorously. The collagenase was inactivated with FBS. The sample was centrifuged for 30 s (300× g). This step was repeated 3 times. HBSS was then added to the sample and centrifuged two more times at the same speed as before. After the last centrifugation, HBSS was removed and Percoll (1.045 g/mL) (Sigma-Aldrich) was added. The Percoll solution was left to sediment for 5 min. After this time, the islets were collected from the bottom of the falcon. The step was repeated 3 times. Finally, islets were cultured in RPMI-1640 (Pan Biotech) supplemented with 2 mM L-glutamine (Gibco), 10% fetal bovine serum (FBS) and 1% penicillin/streptomycin and the culture medium was changed daily.
The presence of insulin, C-peptide, glucagon, Pdx-1 and Nkx6.1 was assessed in isolated mouse islets. Islets were fixed in PFA (3.8%) for 30 min, washed with PBS and 0.15% Triton X-100 was added for 1.5 h, then washed again with PBS and samples were transferred to 1% BSA + 0.05% Triton X-100 solution for 3 h. After this time, islets were incubated with primary antibody for 12 h at 4 °C. The secondary antibody was then added for 3 h. Next, the islets were incubated for 10 min with Hoechst33342. After incubation, at 37 °C, in the dark, the samples were washed twice with HBSS, the slide was transferred to a microscope table and the cells were visualized under a Zeiss LSM 880 confocal microscope (Carl Zeiss, Jena, Germany) with a 63× immersion objective. Images were analyzed by Zeiss ZEN Software.

[3] = test system: INS-1E and MIN6 cells; experiment: GSIS and insulin, C-peptide, glucagon staining (flow cytometry, confocal); format: cell-based, rat, mouse; set-up: key to insulin+ / glucagon+ / C-peptide+: ↑: moderate; ↑↑: most potent
Procedure: Cells were cultured in a low glucose medium (5.5 mM) for 24 h. After this medium was changed to lower glucose medium (2 mM) for 2 h and then for high glucose medium (25 mM) for 30 min, media were harvested and/or cells were used for further analysis.
The presence of insulin, glucagon, C-peptide, Ki67, and DYRK1A was assessed in MIN6 and INS-1E pancreatic cell lines. Before imaging, cells were seeded onto slides at a density of 1 × 10^5 cells and maintained at 37 °C in 95% atmospheric air and 5% CO2 in a humidified atmosphere for 24 h. After washing with fresh medium, cells were incubated with 5 µM inhibitor solution for 24 h. After this time, the solution was replaced with a culture medium for another 48 h. The cells were fixed. Then after washing and permeabilization, they were incubated with specific antibodies diluted in PBS. Next, the cells were incubated for 10 min with Hoechst33342 (Sigma-Aldrich). After incubation, at 37 °C, in the dark, the cells were washed twice with HBSS (Gibco), the slide was transferred to a microscope table, and the cells were visualized under a Zeiss LSM 880 confocal microscope (Carl Zeiss, Jena, Germany) with a 63× immersion objective. Images were analyzed by Zeiss ZEN Software.
The presence of insulin, glucagon, C-peptide, Ki67 and DYRK1A was assessed in MIN6 and INS-1E pancreatic cell lines. Before analysis, cells were seeded onto slides at a density of 1 × 10^5 cells and maintained at 37 °C in 95% atmospheric air and 5% CO2 in a humidified atmosphere for 24 h. After washing with fresh medium, cells were incubated with 5 µM inhibitor solution for 24 h. After this time, the solution was replaced with a culture medium for another 48 h. The cells were then detached from the plate using trypsin. The cells were fixed. Then after washing and permeabilization, they were incubated with specific antibodies diluted in PBS. Cells were analyzed with BDAccuri flow cytometer and calculated using FlowJo software (Ashland, Oregon-based FlowJo LLC, a subsidiary of Becton Dickinson).

[4] = test system: NFAT; experiment: NFAT luciferase reporter assay in HEK 293 NFAT cell line expressing DYRK1A; format: cell-based
Procedure: The Renilla luciferase reporter assay was performed in HEK 293 NFAT cell line, constitutively expressing DYRK1A, NFAT and Renilla luciferase under the control of an NFAT-RE promoter. The cells were seeded at 10,000 per well in 96-well white plates (Cellstar, Greiner; Burlington, MA, United States). The following day cells were incubated with the indicated concentration of inhibitor for 30 min, then the medium was changed, and cells were stimulated with 1 μM ionomycin and 10 nM PMA for 5 h. Next, the cell lysate was harvested to measure luciferase activity with Renilla-Glo Luciferase Assay System (Promega, Wisconsin, United States). All experiments were carried out in triplicates.

[5] = high glucose, day 4 after treatment
[6] = combination with TGF-β inhibitors

Compound: O=c1ccc2cnc3ccc(-c4cn[nH]c4)cc3c2n1-c1ccc(F)cc1C(F)(F)F [AC27, 1-(4-fluoro-2-(trifluoromethyl)phenyl)-9-(1H-pyrazol-4-yl)benzo[h][1, 6]naphthyridin-2-one]
- concentration without significant toxic effects ([1]; MTT, 24 h): up to 5 μM
- toxicity ([1]; Table 2, Cell lines): no
- insulin secretion (ELISA) ([2]; Table 2, Isolated islets): ↑↑
- insulin secretion compared with untreated islets ([2]; after GSIS): significantly higher
- increase in insulin secretion compared with control islets [2, 5]: 60%
- insulin secretion, higher than with harmine [2, 5]: ca. 15%
- percentage of total insulin released ([2]; secretion normalized for total insulin content): higher
- glucagon level ([3]; 5 μM, compound alone): balanced (lower) glucagon level
- insulin/C-peptide secretion ([3]; GSIS, compound alone): higher insulin/C-peptide secretion
- C-peptide+ ([3]; Table 2, Cell lines): ↑↑
- glucagon+ ([3]; Table 2, Cell lines): ↑
- insulin+ ([3]; Table 2, Cell lines): ↑↑
- time the effect remained stable ([3]; after inhibitor action): up to 12 days
- glucagon level after GSIS [3, 6]: reduced
- insulin/C-peptide secretion [3, 6]: markedly improved
- increase in insulin expression ([3]; discussion statement): more than 60%
- activity relative to harmine in NFAT assay ([4]; 1 µM AC27 gives same activity as 10 µM harmine): ~10 times
- increase of NFAT activity ([4]; low concentration range 0.03 µM–1 µM): ≤ 6 fold
